Literature values in patent US20140106010A1, “Blend of Green and Black Extracts for the Promotion of Health Benefits” (Kemin Industries, Inc., priority 2012, published 2014).

Key:
ERK1 and ERK2 = settings: TRAMP mice, 0.06% EGCG in drinking water, dorsolateral and ventral prostate
[1] = test system: prostate tissue of C57BL/6 mice; settings: 2 weeks decaffeinated black tea extract at 50 mg/g diet

| Compound | decreased phosphorylation of ERK1 and ERK2 (ERK1 and ERK2) | greater relative absorption into the prostate compared to EGCG [1] [%] |
| --- | --- | --- |
| epigallocatechin-3-gallate [EGCG] | about 50% |  |
| O=c1c(O)cc([C@H]2Oc3cc(O)cc(O)c3C[C@H]2O)cc2c([C@H]3Oc4cc(O)cc(O)c4C[C@H]3O)cc(O)c(O)c12 [theaflavin] |  | 70 |
